≈ marks a conversion by molar mass, not a printed value. Where two headings read alike, the source gives them in different places.
How the values were obtained:
[1] = test system: M. abscessus (n = 20) clinical isolates; test: MIC against rapid-growing NTM clinical isolates; assay type: cell-based; settings: Mycobacteroides abscessus; M. abscessus (n = 20); read-out: MIC90
[2] = test system: M. chelonae (n = 11) clinical isolates; test: MIC against rapid-growing NTM clinical isolates; assay type: cell-based; settings: M. chelonae (n = 11); for MIC90: Mycobacteroides chelonae, read-out: MIC90
[3] = test system: M. fortuitum (n = 11) clinical isolates; test: MIC against rapid-growing NTM clinical isolates; assay type: cell-based; settings: M. fortuitum (n = 11); for MIC90: Mycolicibacterium fortuitum, read-out: MIC90
Other NTM (n = 12) = test: MIC against rapid-growing NTM clinical isolates; assay type: cell-based; settings: Other NTM (n = 12); for MIC90: read-out: MIC90
[4] = assay type: cell-based; settings: for Interpretation of checkerboard synergy testing: antibiotic in combination with CRS400393 (benzothiazole amides)
M. abscessus 1 = test: MIC in MHB versus 7H9+OADC; assay type: cell-based
M. abscessus 21 = test: MIC in MHB versus 7H9+OADC; assay type: cell-based
M. abscessus 79 = test: MIC in MHB versus 7H9+OADC; assay type: cell-based
[5] = antibiotic in checkerboard combination with CRS400393

Compound: CC(=O)NC[C@H]1CN(c2ccc(N3CCOCC3)c(F)c2)C(=O)O1 [Linezolid, reference compound]
- MIC90 [1]: > 8 µg/mL
- MIC range [2]: 1 to 8 µg/mL
- MIC90 [2]: 8 µg/mL (≈ 23.7 µM)
- MIC90 [3]: > 8 µg/mL
- MIC90 (Other NTM (n = 12)): > 8 µg/mL
- FIC Index [4]: 0.56

Compound: Cc1cc(NS(=O)(=O)c2ccc(N)cc2)no1 [Sulfamethoxazole]
- FIC Index [4]: 0.56

Compound: NCC[C@H](O)C(=O)N[C@@H]1C[C@H](N)[C@@H](O[C@H]2O[C@H](CN)[C@@H](O)[C@H](O)[C@H]2O)[C@H](O)[C@H]1O[C@H]1O[C@H](CO)[C@@H](O)[C@H](N)[C@H]1O [Amikacin, reference compound]
- MIC90 [1]: 16 µg/mL (≈ 27.3 µM)
- MIC90 [2]: > 16 µg/mL
- MIC range [3]: 0.5 to 4 µg/mL
- MIC90 [3]: 2 µg/mL (≈ 3.42 µM)
- MIC range (Other NTM (n = 12)): 0.5 to 16 µg/mL
- MIC90 (Other NTM (n = 12)): 16 µg/mL (≈ 27.3 µM)
- FIC Index [4, 5]: 1
- Interpretation of checkerboard synergy testing [4]: additive
- MIC (M. abscessus 1; M. abscessus 1, 7H9 + OADC (5 mg/mL albumin)): 16 µg/mL
- MIC (M. abscessus 1; M. abscessus 1, MHB): 8 µg/mL (≈ 13.7 µM)
- MIC (M. abscessus 21; M. abscessus 21, 7H9 + OADC (5 mg/mL albumin)): 4 µg/mL
- MIC (M. abscessus 21; M. abscessus 21, MHB): 2 µg/mL (≈ 3.42 µM)
- MIC (M. abscessus 79; M. abscessus 79, 7H9 + OADC (5 mg/mL albumin)): 4 µg/mL
- MIC (M. abscessus 79; M. abscessus 79, MHB): 2 µg/mL (≈ 3.42 µM)

Compound: CO[C@@]1(NC(=O)Cc2cccs2)C(=O)N2C(C(=O)O)=C(COC(N)=O)CS[C@@H]21 [Cefoxitin]
- FIC Index [4, 5]: 0.56
- Interpretation of checkerboard synergy testing [4]: additive

Compound: CC(C)/N=c1\cc2n(-c3ccc(Cl)cc3)c3ccccc3nc-2cc1Nc1ccc(Cl)cc1 [Clofazimine]
- FIC Index [4, 5]: 0.52
- Interpretation of checkerboard synergy testing [4]: additive

Compound: CC[C@H]1OC(=O)[C@H](C)[C@@H](O[C@H]2C[C@@](C)(OC)[C@@H](O)[C@H](C)O2)[C@H](C)[C@@H](O[C@@H]2O[C@H](C)C[C@H](N(C)C)[C@H]2O)[C@](C)(O)C[C@@H](C)CN(C)[C@H](C)[C@@H](O)[C@]1(C)O [Azithromycin, reference compound]
- MIC90 [1]: > 8 µg/mL
- MIC range [2]: 0.12 to 0.5 µg/mL
- MIC90 [2]: 0.5 µg/mL (≈ 0.668 µM)
- MIC90 [3]: > 8 µg/mL
- MIC90 (Other NTM (n = 12)): > 8 µg/mL
- FIC Index [4, 5]: 1
- Interpretation of checkerboard synergy testing [4]: additive
- lung histology (Mabs 21; after 4 weeks of treatment): only minimal pathologic evidence of inflammatory infiltrates
- reduction of lung CFU compared to the untreated group (Mabs 21; oral gavage 100 mg/kg, 4 weeks): 0.38 Log10 CFU

Compound: COc1nc2ccc(Br)cc2cc1[C@@H](c1ccccc1)[C@@](O)(CCN(C)C)c1cccc2ccccc12 [Bedaquiline]
- FIC Index [4, 5]: 2
- Interpretation of checkerboard synergy testing [4]: indifferent
- Interpretation of checkerboard synergy testing ([4]; listed as bedaquiline): indifference

Compound: C[C@H]1c2cccc(O)c2C(=O)C2=C(O)[C@]3(O)C(=O)C(C(N)=O)=C(O)[C@@H](N(C)C)[C@@H]3[C@@H](O)[C@@H]21 [Doxycycline]
- FIC Index [4, 5]: 2
- Interpretation of checkerboard synergy testing [4]: indifferent
- Interpretation of checkerboard synergy testing ([4]; listed as doxycycline): indifference

Compound: NC[C@H]1O[C@H](O[C@H]2[C@H](O)[C@@H](O[C@H]3O[C@H](CO)[C@@H](O)[C@H](N)[C@H]3O)[C@H](N)C[C@@H]2N)[C@H](N)C[C@@H]1O [Tobramycin]
- FIC Index [4, 5]: 0.75
- Interpretation of checkerboard synergy testing [4]: additive

Source: PMC6158578, “Optimization and Lead Selection of Benzothiazole Amide Analogs Toward a Novel Antimycobacterial Agent” (Frontiers in Microbiology, 2018)
